These results are taken from ChEMBL document CHEMBL1201862, “PubChem BioAssay data set” (2004).

Test systems include SNB-75; NCI-H23; HOP-62; SK-MEL-5; EKVX; MDA-MB-231; UO-31; UACC-62; IGROV-1; PC-3; SN12C; SK-MEL-28; HCT-15; OVCAR-4; OVCAR-8; A498; RPMI-8226; HT-29; SK-OV-3.
Assay in all cases: NCI anticancer screen, dose series, 48 h

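These data come from cells grown in 96-well plates and exposed to compound for 48 hours at five concentrations. The concentration for 50% growth inhibition is given as GI50.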 Calls of active or inactive are those of the source. Rule as the data show it: active = GI50 up to about 1.1 µM and inactive = higher. A value given as a limit tells only on which side of the number the result lay.

As for `CSC12c3cc(C)n(-c4ccc([N+](=O)[O-])cc4)c3CC(C)(C)CN1C(=O)C2Oc1ccccc1` (stereo not given), the GI50 was 10.6 µM (inactive) with SNB-75; 74.1 µM (inactive) in the assay on NCI-H23; > 100 µM (inactive) in the assay with HOP-62; > 100 µM (inactive) with SK-MEL-5; 36 µM (inactive) with EKVX; 96.6 µM (inactive) with MDA-MB-231. In addition, the GI50 with UO-31 was > 100 µM (inactive); in the assay with UACC-62, 22.2 µM (inactive); in the assay on IGROV-1, > 100 µM (inactive); in the assay with PC-3, > 100 µM (inactive); in the assay on SN12C, > 100 µM (inactive); with SK-MEL-28, > 100 µM (inactive). The GI50 in the assay with HCT-15 was more than 100 µM; in the assay with OVCAR-4, 4.72 µM (inactive); in the assay on OVCAR-8 it was > 100 µM (inactive); with A498, 10.6 µM (inactive); with RPMI-8226, 31.9 µM (inactive).

For the molecule `CC(=O)C(=[N+]=[N-])C(=O)N(C)CCC#N`, the GI50 in the assay with HT-29 was > 10 µM (inactive); in the assay with SNB-75, 0.118 µM (active); with NCI-H23, > 10 µM (inactive); with HOP-62, > 10 µM (inactive); in the assay on EKVX, > 10 µM (inactive); in the assay with MDA-MB-231, > 10 µM (inactive). Besides, the GI50 in the assay with UO-31 is > 10 µM (inactive); in the assay on UACC-62 it was 3.58 µM (inactive); in the assay with IGROV-1, > 10 µM (inactive); in the assay on PC-3 it was > 10 µM (inactive); in the assay with SN12C it was > 10 µM (inactive); in the assay on SK-MEL-28, > 10 µM (inactive). The GI50 was more than 10 µM in the assay on HCT-15; > 10 µM (inactive) in the assay on OVCAR-8; > 10 µM (inactive) in the assay with A498; > 10 µM (inactive) in the assay with SK-OV-3; > 10 µM (inactive) in the assay with RPMI-8226.

As for `O=Cc1ccc(Oc2c3ccccc3nc3ccccc23)cc1`, the GI50 is 2.07 µM (inactive) in the assay with HT-29; 15.5 µM (inactive) in the assay with SNB-75; 14.4 µM (inactive) in the assay with HOP-62; 11.5 µM (inactive) in the assay on SK-MEL-5; 17.7 µM (inactive) in the assay with EKVX; 2.29 µM (inactive) in the assay with MDA-MB-231. Moreover, the GI50 was 0.46 µM (active) in the assay with UACC-62; 6.34 µM (inactive) in the assay with PC-3; 2.85 µM (inactive) in the assay on SN12C; 12.6 µM (inactive) in the assay on SK-MEL-28; 4.16 µM in the assay on HCT-15; 4.63 µM (inactive) in the assay on OVCAR-4. For the same molecule, the GI50 in the assay on OVCAR-8 was 5.75 µM (inactive); in the assay on A498, 0.869 µM (active); in the assay on SK-OV-3, 4.63 µM (inactive); in the assay on RPMI-8226, 2.39 µM (inactive).

Turning to `O=C(c1ccccc1)N1CCC(CC2(c3cc4ccccc4[nH]3)OCCO2)CC1`, the GI50 with HT-29 is 26.5 µM (inactive); in the assay with SNB-75, 47.1 µM (inactive); in the assay with NCI-H23, 42.3 µM (inactive); in the assay with HOP-62, 58.1 µM (inactive); with SK-MEL-5, 19.7 µM (inactive); with EKVX it was 66.2 µM (inactive). Also, the GI50 in the assay on MDA-MB-231 was 64.1 µM (inactive); in the assay on UO-31, 30.6 µM (inactive); with UACC-62, 19 µM (inactive); in the assay on IGROV-1, 42.2 µM (inactive); with PC-3, 40.5 µM (inactive); in the assay on SN12C it was > 100 µM (inactive). For the same molecule, the GI50 with SK-MEL-28 is 19.4 µM (inactive); in the assay with HCT-15, 32.4 µM; in the assay on OVCAR-4 it was 47.3 µM (inactive); in the assay with OVCAR-8, 58.6 µM (inactive); with A498, 21.4 µM (inactive); with SK-OV-3, 56.8 µM (inactive). In addition, in the assay with RPMI-8226, the GI50 was 2.52 µM (inactive).

For the molecule `CCOC(=O)c1ccc(NCC#CCN2CCOCC2)cc1`, the GI50 was 69.2 µM (inactive) in the assay on HT-29; > 100 µM (inactive) with NCI-H23; > 100 µM (inactive) in the assay on HOP-62; 26.9 µM (inactive) in the assay on SK-MEL-5; 57.9 µM (inactive) with EKVX; > 100 µM (inactive) in the assay with MDA-MB-231. Besides, the GI50 was > 100 µM (inactive) in the assay on UO-31; 34.8 µM (inactive) with UACC-62; > 100 µM (inactive) in the assay with IGROV-1; > 100 µM (inactive) in the assay with PC-3; > 100 µM (inactive) in the assay with SN12C; > 100 µM (inactive) with SK-MEL-28. Besides, the GI50 was 62.4 µM with HCT-15; > 100 µM (inactive) in the assay on OVCAR-4; > 100 µM (inactive) in the assay on A498; > 100 µM (inactive) with SK-OV-3; > 100 µM (inactive) in the assay with RPMI-8226.

Consider `OC[C@@H](O)[C@H](O)[C@H](O)[C@@H](O)C1SCCCS1`, for which the GI50 with HT-29, in the assay on SNB-75, in the assay on NCI-H23, in the assay with HOP-62, in the assay on SK-MEL-5 and in the assay with EKVX was > 100 µM (inactive) throughout. The GI50 in the assay with MDA-MB-231, with UO-31, with UACC-62, with IGROV-1, with PC-3 and in the assay on SN12C was > 100 µM (inactive) each time. Further, the GI50 is > 100 µM (inactive) in the assay on SK-MEL-28; more than 100 µM in the assay with HCT-15; > 100 µM (inactive) with OVCAR-4; > 100 µM (inactive) with OVCAR-8; > 100 µM (inactive) in the assay on A498; > 100 µM (inactive) with SK-OV-3. Further, in the assay with RPMI-8226, the GI50 is > 100 µM (inactive).

Consider `Oc1ccc(/C=C/c2ccc3cccc(O)c3n2)cc1O`, for which the GI50 in the assay on HT-29 was 14.7 µM (inactive); with SNB-75, 4.74 µM (inactive); in the assay with HOP-62 it was 13.1 µM (inactive); in the assay on SK-MEL-5, 3.02 µM (inactive); in the assay on EKVX it was 6.11 µM (inactive); with MDA-MB-231 it was 23 µM (inactive). Also, the GI50 in the assay on UO-31 is 2.74 µM (inactive); in the assay on UACC-62, 4.79 µM (inactive); in the assay with IGROV-1 it was 1.44 µM (inactive); with PC-3, 15.6 µM (inactive); in the assay on SN12C, 2.94 µM (inactive); in the assay with SK-MEL-28 it was 13 µM (inactive). The GI50 was 3.29 µM with HCT-15; 7.5 µM (inactive) in the assay on OVCAR-4; 5.86 µM (inactive) in the assay on OVCAR-8; 11.5 µM (inactive) with A498; 23.7 µM (inactive) with SK-OV-3; 0.692 µM (active) in the assay on RPMI-8226.

On to `[N-]=[N+]=Nc1c(C=O)c(=O)n(-c2ccccc2)c2ccccc12`, for which the GI50 in the assay on HT-29 was 23.1 µM (inactive); in the assay with SNB-75, 24.8 µM (inactive); in the assay with NCI-H23 it was 16.8 µM (inactive); in the assay with HOP-62, 29.3 µM (inactive); in the assay on SK-MEL-5, 14.1 µM (inactive); in the assay with MDA-MB-231, 40.3 µM (inactive). Besides, the GI50 with UO-31 is 16.2 µM (inactive); in the assay on UACC-62, 15 µM (inactive); in the assay with IGROV-1, 16.6 µM (inactive); in the assay with PC-3 it was 14.4 µM (inactive); in the assay with SN12C, 42.3 µM (inactive); with SK-MEL-28 it was 16.9 µM (inactive). In addition, the GI50 in the assay with HCT-15 was 18.4 µM; in the assay with OVCAR-4, 16.7 µM (inactive); in the assay with A498, 0.0778 µM (active); with SK-OV-3, 31.5 µM (inactive); in the assay with RPMI-8226, > 10 µM (inactive).
